Experimental findings from patent US20230000842A1, “METHODS OF TREATING CARTILAGE DISORDERS THROUGH INHIBITION OF CLK AND DYRK” (SAMUMED, LLC, priority 2019, published 2023) are described below.

Assay [1] concerns primary human mesenchymal stem cells (hMSCs). As to the kind of experiment: Chondrogenesis screening using primary human mesenchymal stem cells. The class given is cell-based. The following applies: Homo sapiens, Mesenchymal stem cells, hMSC chondrogenesis; for EC50: concentration required to induce 50% levels of chondrogenesis with TGF-β3 as positive control, read-out: Conc (nM) of 50% TGF-β3 activity; for Emax: maximum activity relative to TGF-β3 (10 ng/mL) positive control, read-out: Max. Activity as % TGF-β3 activity. In a few lines: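 Derived values are EC50 for 50% chondrogenesis, maximal activity and the dose giving it. These come from nodule area in passage 3–6 primary hMSCs, expressed as fold change over the mean of 3 same-plate DMSO wells, 2–3 replicates per concentration. TGF-β3 served as positive control.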

The test system of assay [2] is Wnt pathway activity (SW480 colon carcinoma cells stably expressing the Sp5-Luc reporter). As to the kind of experiment: Wnt pathway activity screening assay (Sp5-Luc reporter gene assay). Particulars: Homo sapiens. A general note: Reporter assays use an easily measured gene product as a stand-in for the process of interest.
The target in assay [3] is CLK2 kinase (Homo sapiens, UniProt P49760). As to the kind of experiment: CLK2 kinase activity assay (Z-lyte FRET).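 Further: FRET read-out as coumarin to fluorescein emission ratio, unphosphorylated peptide as 0% and phosphorylated peptide as 100% controls, duplicate reactions, non-linear regression fit of dose-response curves.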 The format is biochemical. The following applies: Z-lyte Ser/Thr 6 peptide, 60 μM ATP, 1 h at room temperature.
CLK2 kinase, sequence (P49760 whole entry): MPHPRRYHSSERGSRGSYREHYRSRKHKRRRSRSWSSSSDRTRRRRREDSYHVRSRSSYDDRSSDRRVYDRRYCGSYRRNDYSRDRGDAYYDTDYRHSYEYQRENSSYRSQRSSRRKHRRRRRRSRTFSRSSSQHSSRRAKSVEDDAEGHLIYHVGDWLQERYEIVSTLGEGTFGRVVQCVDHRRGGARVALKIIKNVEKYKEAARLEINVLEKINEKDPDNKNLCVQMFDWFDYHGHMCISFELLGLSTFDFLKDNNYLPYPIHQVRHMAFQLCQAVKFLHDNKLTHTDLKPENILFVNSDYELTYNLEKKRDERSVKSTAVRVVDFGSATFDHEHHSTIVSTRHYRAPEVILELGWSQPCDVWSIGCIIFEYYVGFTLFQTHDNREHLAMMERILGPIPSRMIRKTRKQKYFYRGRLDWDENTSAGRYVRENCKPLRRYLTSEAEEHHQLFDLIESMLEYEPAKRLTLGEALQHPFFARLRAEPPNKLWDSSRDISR
Assay [4] has as its target CLK3 kinase (Homo sapiens, UniProt P49761). As to the kind of experiment: CLK3 kinase activity assay (Z-lyte FRET).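 Further: kinase activity read as coumarin/fluorescein emission ratio by FRET, unphosphorylated peptide as 0% and phosphorylated peptide as 100% control, values from non-linear regression of dose-response curves.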 The following applies: Z-lyte Ser/Thr 18 peptide, 156 μM ATP, 1 h at room temperature. The format is biochemical.
In assay [5] the test system is MMP-3 levels in supernatant of chondrocytes stimulated with IL1-β. Kind of assay: Chondrocyte protection assay compound screening (MMP-3 LANCE Ultra). The class given is cell-based, human. The following applies: Homo sapiens, Chondrocyte, IL1-β 10 ng/mL overnight, 11-point curves from 3 μM to 0.05 nM; for Emax: read-out: Maximum % Inhibition. In a few lines:
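Primary human chondrocytes (passage 2–5) in differentiation medium were stimulated with 10 ng/mL IL1-β for an overnight incubation at 37 °C. MMP-3 in 1:7-diluted supernatant was read by TR-FRET immunoassay against a standard curve, normalised to IL1-β-stimulated wells; EC50 and maximum % inhibition came from nonlinear regression.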
(In TR-FRET formats the signal depends on donor and acceptor labels being close together.)

The mark [6] stands for this setting: SW480, Table 4, SW480 cells stably expressing Sp5-Luc reporter, 10-point dose-response from 10 μM, 36 to 48 hours.

CLK3 kinase, sequence (P49761 whole entry): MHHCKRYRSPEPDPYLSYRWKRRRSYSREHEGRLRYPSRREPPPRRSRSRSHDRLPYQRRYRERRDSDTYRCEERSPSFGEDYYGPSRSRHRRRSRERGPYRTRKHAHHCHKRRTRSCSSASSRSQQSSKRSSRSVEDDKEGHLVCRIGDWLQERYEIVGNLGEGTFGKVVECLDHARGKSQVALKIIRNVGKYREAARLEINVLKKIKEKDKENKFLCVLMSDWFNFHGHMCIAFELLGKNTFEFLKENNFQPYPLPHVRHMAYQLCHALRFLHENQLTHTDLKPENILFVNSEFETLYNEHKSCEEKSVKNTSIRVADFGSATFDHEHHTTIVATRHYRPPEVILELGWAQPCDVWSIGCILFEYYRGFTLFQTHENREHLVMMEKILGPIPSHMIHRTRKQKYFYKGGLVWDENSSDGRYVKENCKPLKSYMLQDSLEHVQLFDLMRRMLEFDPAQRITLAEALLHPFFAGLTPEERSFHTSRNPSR

Regarding `CN1CCN(c2nccc3[nH]c(-c4n[nH]c5cc(F)c(-c6cnn(C)c6)cc45)nc23)CC1` [compound 219], the EC50 in assay [1] came to 30 nM; in assay [2] (setting [6]), 85.7 nM; in assay [3], 1 nM; in assay [4], 26 nM; in assay [5], 35.5 nM. Moreover, the Emax in assay [1] came to 113%; in assay [5], 87.3%.

Regarding `O=C(Nc1c[nH]nc1C(=O)Nc1cncc(-c2cccc(F)c2)c1)c1cncc(OC2CCNCC2)c1` [compound 14], the results for the Emax in assay [1] and in assay [5] were 89.5% and 71.9%, respectively. For the same compound, the EC50 in assay [2] (setting [6]) came to 1600 nM; in assay [3], 10 nM; in assay [4] it was 4300 nM; in assay [5] it was 339 nM.

For `O=C(Nc1ccc(CN2CCCC2)cc1)c1n[nH]cc1/C=C/c1cccnc1` [compound 17], the EC50 in assay [1] was 900 nM; in assay [2] (setting [6]) it was 988 nM; in assay [3] it was 17 nM; in assay [4] it was 2670 nM; in assay [5], 3.7 nM. In addition, the Emax in assay [1] worked out at 194%; in assay [5], 64.7%.

Take `CN(C)C(=O)Nc1cncc(-c2cnc3[nH]nc(-c4nc5c(-c6cccc(F)c6)cncc5[nH]4)c3c2)c1` [compound 130]: the Emax amounted to 68.1% in assay [1] and 60.5% in assay [5]. Moreover, the EC50 in assay [2] (setting [6]) was 10 nM; in assay [3] it was 3 nM; in assay [4] it was 18 nM; in assay [5], 40.6 nM.

Consider `Cc1ccc(-c2nccc3[nH]c(-c4n[nH]c5ccc(-c6cncc(N)c6)nc45)nc23)s1` [compound 275], for which the EC50 in assay [1] was 10 nM; in assay [2] (setting [6]), 45.5 nM; in assay [3] it was 1 nM; in assay [4], 20 nM; in assay [5] it was ≥ 3000 nM. Besides, the Emax in assay [1] was determined as 72.6%; in assay [5] it was 58.4%.

Regarding `c1cncc(-c2ccc3[nH]nc(-c4nc5c(N6CCOCC6)cncc5[nH]4)c3c2)c1` [compound 220], the Emax in assay [1] turned out to be 90.4%; in assay [5], 100%. Further, the EC50 in assay [2] (setting [6]) worked out at 23 nM; in assay [3], 1 nM; in assay [4] it was 61 nM; in assay [5] it was 13.6 nM.

In the case of `CC(C)NC(=O)c1n[nH]c2ccc(-c3cncc(CN4CCC(F)(F)CC4)c3)cc12` [compound 75], the EC50 turned out to be 2700 nM in assay [1]; 47.1 nM in assay [2] (setting [6]); 13 nM in assay [3]; 4020 nM in assay [4]; 8 nM in assay [5]. The Emax turned out to be 104% in assay [1] and 95.1% in assay [5].

Regarding `O=C1CCc2cccc(c2)-c2cncc(c2)NC(=O)c2n[nH]c3ccc(cc23)-c2cncc(c2)CN1` [compound 622], the EC50 in assay [1] is 30 nM; in assay [2] (setting [6]), > 10000 nM; in assay [3], 5 nM; in assay [4] it was 36 nM; in assay [5], 10 nM. Further, the figures for the Emax in assay [1] and in assay [5] were 69.4% and 83.8%, respectively.

Consider `CC(C)Oc1ccc(NC(=O)c2n[nH]c3ccc(-c4cncc(CN5CC6CC(C5)O6)c4)cc23)cn1` [compound 102], for which the EC50 in assay [1] was determined as 30 nM; in assay [2] (SW480) it was 61 nM; in assay [3] it was 2 nM; in assay [4] it was 88 nM; in assay [5], 0.2 nM. The Emax in assay [1] was 75.7%; in assay [5], 26.3%.

Turning to `CCCC(=O)Nc1cncc(-c2ccc3[nH]nc(-c4nc5c(N6CCCCC6)cncc5[nH]4)c3c2)c1` [compound 208], the Emax was 77.3% in assay [1] and 39% in assay [5]. In addition, the EC50 was 42 nM in assay [2] (setting [6]), 4 nM in assay [3], 58 nM in assay [4] and 20.5 nM in assay [5].

Regarding `Fc1ccc(-c2nnc(-c3n[nH]cc3/C=C/c3cccnc3)o2)cc1` [compound 23], the Emax in assay [1] stood at 23.4%; in assay [5] it was 51.7%. Further, the EC50 was 1510 nM in assay [2] (setting [6]), 27 nM in assay [3], 627 nM in assay [4] and ≥ 3000 nM in assay [5].
